Measured values taken from paper PMC10252594 (Cancers, 2023).
Several values for one entry are separate records, joined by “and”; a condition that tells them apart may be missing. Identical values can stand only once. Like-named read-outs stand apart in the source and are kept apart here.

Assays:
22Rv1 = test: PCa cell viability proliferation screening (MTS), 22Rv1; assay type: cell-based; details: Homo sapiens, 72 h, 22Rv1, AR positive, three days
Procedure: VCaP (4 × 10^4 cells/well) were seeded in 96-well plates in DMEM media supplemented with 10% fetal bovine serum (FBS), penicillin, streptomycin, and sodium pyruvate. 22Rv1 cells (2 × 10^3 cells/well) and LAPC-4 cells (6 × 10^3 cells/well) were seeded in 96-well plates in RPMI media supplemented with 10% FBS, penicillin, streptomycin, and sodium pyruvate. The cells were incubated at 37 °C in a 5% CO2 humidified atmosphere for 24 h before treatment with multiple concentrations of RM-581 dissolved in dimethyl sulfoxide (DMSO). The concentrations used were between 0.01 μM and 50 μM. Treatment lasted for 3 days for all the cell lines except VCaP cells, which were treated for 7 days due to slower proliferation rates. At the end of the assay, 20 μL of MTS (Cell Titer 96 Aqueous, Promega, Nepean, ON, Canada) were added to each well, and the mixture was incubated for 4 h at 37 °C. The plates were subsequently analyzed at 490 nm using a Tecan M-200 microplate reader (Männedorf, Switzerland).

[1] = Dosage of RM-581 in tumors and plasma (LC-MS/MS); assay type: in vivo, mice; details: for RM-581 in Plasma / RM-581 in Tumor / concentration at 3 h: 3 h after last treatment; for concentration at 3 h / Kp at 3 h: nude, mouse; for Kp at 3 h: tumor/plasma, ng/g = ng/mL assumed, read-out: Concentration Index (Tumor/Plasma)
Procedure: The mice were weighed at the start and end of the protocol. Tumor area (mm^2) was calculated twice a week using two perpendicular diameters (L and W), which were recorded using a caliper, and the formula L/2 × W/2 × π. The area measured on the first day of treatment was fixed at 100%. At the end of the studies and 3 h after the last treatment, the mice were terminally anesthetized, and their final body weights were measured. Tumors, liver, kidney, and total prostate were collected from mice during necropsy, while blood was collected by cardiac puncture. Tissues and plasma were immediately frozen at −80 °C until analysis.

[2] = Toxicity during LAPC-4 xenograft protocol (signs, body weight, histopathology); assay type: in vivo, mice; details: 28 days
Text: Tissue samples from xenograft experiments were fixed in neutral buffered 10% formalin and processed for routine paraffin embedding. Tissue sections (3 µm) were stained with hematoxylin and eosin (HE) and histologically observed by an independent pathologist. Digital images at 20× magnification of each slide were obtained using the slide scanner NanoZoomer 2.0-HT (Hamamatsu, Bridgewater, NJ, USA). Whole-section images were visualized using the software NDP View (Hamamatsu, Bridgewater, NJ, USA).

LAPC-4 xenografts = test: Cholesterol determination in tumor, liver, plasma (kit, method A); assay type: in vivo, mice; details: 10 mg/kg PO, NS vs CTL
Procedure: A cholesterol quantification kit provided by Sigma-Aldrich (Catalog Number MAK043) was used following the manufacturer’s instructions to determine the concentration of total cholesterol, free cholesterol, and cholesteryl ester in samples. The cholesterol contents were measured in samples from two different protocols. […] Secondly, in tumor, liver, and plasma obtained at the end of the LAPC-4 xenograft experiment (control group and the group treated with RM-581 at 10 mg/kg/PO).

Compound: C#C[C@]1(O)CC[C@H]2[C@@H]3CCc4cc(OC)c(N5CCN(C(=O)[C@@H]6CCCN6C(=O)c6ccc7ccccc7n6)CC5)cc4[C@H]3CC[C@@]21C [RM-581]
- IC50 (22Rv1): 1.38 µM
- RM-581 in Plasma ([1]; 3 mg/kg PO): 15 ng/mL and 0.023 µM
- RM-581 in Tumor ([1]; 3 mg/kg PO): 50 ng/g and 0.077 µM
- RM-581 in Plasma ([1]; 10 mg/kg PO): 30 ng/mL and 0.046 µM
- RM-581 in Tumor ([1]; 10 mg/kg PO): 300 ng/g and 0.464 µM
- RM-581 in Plasma ([1]; 30 mg/kg PO): 171 ng/mL and 0.265 µM
- RM-581 in Tumor ([1]; 30 mg/kg PO): 940 ng/g and 1.465 µM
- concentration at 3 h ([1]; plasma, 30 mg/kg PO, read-out: RM-581 in Plasma): 171 ng/mL
- concentration at 3 h ([1]; plasma, PO, read-out: RM-581 in Plasma): 15 ng/mL
- Kp at 3 h ([1]; 3 mg/kg PO): 3.3
- Kp at 3 h ([1]; 10 mg/kg PO): 10
- Kp at 3 h ([1]; 30 mg/kg PO): 5.5
- concentration at 3 h ([1]; tumor, 30 mg/kg PO, read-out: RM-581 in Tumor): 940 ng/g
- concentration at 3 h ([1]; tumor, PO, read-out: RM-581 in Tumor): 50 ng/g
- signs of toxicity during xenograft protocol ([2]; nude mice, 3, 10, 30 mg/kg PO): no signs of apparent toxicity
- body weight of treated vs untreated mice ([2]; nude mice): no significant difference
- histology of liver, kidney and prostate (HE) ([2]; nude mice): tissue morphology was not affected
- F-CHOL (free cholesterol), liver (LAPC-4 xenografts): 2410 ± 10 (NS) µg/g
- F-CHOL (free cholesterol), plasma (LAPC-4 xenografts): 403 ± 120 (NS) µg/mL
- F-CHOL (free cholesterol), tumor (LAPC-4 xenografts): 3270 ± 236 (NS) µg/g
- T-CHOL (total cholesterol), liver (LAPC-4 xenografts): 2440 ± 475 (NS) µg/g
- T-CHOL (total cholesterol), plasma (LAPC-4 xenografts): 1820 ± 500 (NS) µg/mL
- T-CHOL (total cholesterol), tumor (LAPC-4 xenografts): 4543 ± 2476 (NS) µg/g
